Earlier results on two compounds are cited in patent EP2706070A1, “Combination treatments involving antibodies to human PCSK9” (SANOFI, priority 2012, dated 2014).

One data set relates to LDL-C. The conditions noted are these: ezetimibe 10 mg/day added to maximal dose of statins, genotype-confirmed hoFH; cited from earlier work.
The conditions of data set [1]: elimination (ezetimibe and its glucuronide: from plasma, after oral administration); cited from earlier work.

Each structure is given as a SMILES string.

Regarding `O=C1[C@H](CC[C@H](O)c2ccc(F)cc2)[C@@H](c2ccc(O)cc2)N1c1ccc(F)cc1` [ezetimibe], the “total reduction of LDL-C levels” value with LDL-C was 27%.

Consider `O=C(O)[C@H]1O[C@@H](Oc2ccc([C@@H]3[C@@H](CC[C@H](O)c4ccc(F)cc4)C(=O)N3c3ccc(F)cc3)cc2)[C@H](O)[C@@H](O)[C@@H]1O` [ezetimibe-glucuronide], for which the half-life result in data set [1] is “approximately 22 hours”.
